Molecules are shown by their SMILES.

The subject of one series is INT-407 cells. The series can be described thus: In-vitro cytotoxicity, LDH release assay. It counts as cell-based, human. To be noted: 1 to 500 μM, 3 hours, 5% Triton-X 100 = 100%. The protocol:
In order to investigate the in-vitro cytotoxicity of CM2660, human epithelial cells, INT-407 cells were treated with Vibrio vulnificus (control) of MOI 10, and 1 to 500 μM of CM2660 or DMSO. After 3 hours, LDH release assay was performed and cytotoxicity was measured (FIG. 21). […] Cytotoxicity (%) was calculated with respect to the cytotoxicity obtained through treatment of 5% Triton-X 100 as 100%.

Another series relates to Vibrio cholerae. Briefly: Hemolytic activity of Vibrio cholerae supernatant on horse blood agar. To be noted: 20 μM, 37° C., 24 hours.
Series [1] concerns the target T1, HlyU (Vibrio vulnificus, UniProt A0A3Q0L222).
T1 sequence (A0A3Q0L222 1-98): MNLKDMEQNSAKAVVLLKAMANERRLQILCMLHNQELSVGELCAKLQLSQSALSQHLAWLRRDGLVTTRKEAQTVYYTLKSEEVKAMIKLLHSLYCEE
The series can be described thus: Vibrio reporter strain, pKK1305 (PrtxA-lux, activated by HlyU) in wild-type V. vulnificus. It is filed as cell-based. To be noted: Compound Group I; HlyU activity (RLU, DMSO = 100%), 30° C. The method, then:
Meanwhile, verification experiments using the Vibrio reporter strain were also conducted so as to exclude false positive results. It was identified that the effect of the compound was not limited only to E. coli using Vibrio vulnificus, each having the reporter plasmid (pZW1608) inhibited by HlyU, which was used for the E. coli reporter strain, and the plasmid (pKK1305) in which the promoter of the rtxA gene activated by HlyU is cloned in front of the bioluminescence operon.
The constructed wild-type Vibrio reporter strain was treated with sample compounds and cultured at 30° C., and cell growth and luminescence were measured in the same manner as the E. coli strain screening (FIG. 3 and FIG. 4).
In order to identify whether or not a specific structure of CM2660 has a significant effect on HlyU inhibition, the effect of HlyU inhibition by the compound CM2660 and derivatives thereof, “Compound Group I” (FIG. 5) was verified. For the purpose, the pKK1305 plasmid prepared in Example 1 was conjugated to the wild-type Vibrio vulnificus, and the Vibrio reporter strain (pKK1305 in wild-type V. vulnificus) thus produced was treated with various concentrations of the derivative compounds.
While culturing at 30° C., the growth of the reporter strain and the degree of bioluminescence thereof were measured in the same manner as in Example 1, and the RLU was calculated. The RLU of the DMSO-treated control group was expressed as 100% HlyU activity. HlyU activity was plotted according to the concentration of the derivative compound, and EC50 (half maximal effective concentration) was calculated using GraphPad Prism 7.0 (GraphPad Software, San Diego, Calif.) (FIG. 6, Table 2).

A further series deals with rtxA, vvhA and plpA. Briefly: qRT-PCR of virulence genes activated by HlyU in Vibrio vulnificus. The following applies: 20 μM. It is filed as cell-based. The method, then: The effect of CM2660 on the expression of rtxA, vvhA and plpA, the virulence genes of Vibrio vulnificus activated by HlyU, was investigated. […] Then, the culture solution were sampled at the time at which the expression of each gene was mainly controlled by HlyU (A600=0.5 for rtxA and vvhA, and A600=1.0 for plpA), RNA was purified, and quantitative real-time polymerase chain reaction (quantitative Real-Time (qRT)-PCR) was performed (FIGS. 10 to 12).

The subject of series [2] is Vibrio vulnificus. Briefly: Cytotoxicity of Vibrio vulnificus to INT-407 cells (LDH activity). It counts as cell-based. To be noted: MOI 10, 2.5 hours, various concentrations. The method, then:
Vibrio vulnificus cultured to A600=0.5 at 30° C. was treated with various concentrations of CM2660 or DMSO (control group) and infected into INT-407 cells prepared in 96-well assay plates at multiplicity of infection (MOI) of 10 for 2.5 hours. Then, the 96-well assay plates were centrifuged to separate INT-407 cells, and the supernatant and the lactate dehydrogenase (LDH) activity in the supernatant was measured to determine the occurrence of virulence (FIG. 13).

A short description of series [3]: In-vivo toxicity of CM2660 injected alone. To be noted: subcutaneous, ICR female mice. The protocol:
(§1) In order to determine whether or not CM2660 also decreases the virulence of Vibrio vulnificus in vivo using 7-week-old ICR female mice, Vibrio vulnificus cultured at A600=0.5 at 30° C. was prepared. This was mixed with DMSO (10%) or CM2660 (1.4 mg/kg of mouse body weight) and the resulting mixture was subcutaneously injected into the back of mice anesthetized with isoflurane. In addition, only CM2660 was injected subcutaneously in order to determine the in-vivo toxicity of CM2660 (FIG. 22). FIG. 22 is a graph showing the results of observation of the expression of in-vivo toxicity of Vibrio vulnificus after injecting CM2660 into mice.

The target of series [4] is T1, HlyU. The series can be described thus: Mass spectrometry / X-ray crystallography of HlyU protein treated with CM2660. It counts as binding. The protocol: In order to more accurately identify the HlyU inhibition mechanism of CM2660, the crystal structure of CM2660-treated HlyU protein was detected by X-ray crystallography and compared with that of the HlyU protein not treated with CM2660 (FIG. 17, FIG. 18).
In order to identify this in more detail, samples of HlyU protein treated with CM2660 were analyzed using mass spectrometry.

For series [5], the target named is T1, HlyU. Briefly: Electrophoretic mobility shift assay (EMSA), HlyU binding to rtxA promoter DNA. The method, then:
In order to investigate the effect of CM2660 on the DNA-binding capability of the HlyU protein, electrophoretic mobility shift assay (EMSA) experiments were performed using DNA at the known HlyU-binding rtxA promoter site.
The promoter site of the rtxA gene was amplified by PCR using ^32P-labeled primer, PrtxA-R (5′-[…]-3′) and unlabeled primer PrtxA-F (5′-[…]-3′). This DNA probe was reacted with 50 nM or 100 nM HlyU, 100 μM CM2660 or DMSO in reaction buffer (10 mM Tris-Cl, 50 mM KCl, 5 mM MgCl2, 0.75 mM DTT and 5% glycerol, 0.1 μg poly(dl-dC)) at 25° C. for 30 minutes.
The DNA-HlyU complex was electrophoresed on a polyacrylamide gel and phosphoimaged through Typhoon FLA7000 to determine the band position (FIG. 15, FIG. 16).

In series [6] the test system is Vibrio vulnificus. Briefly: Mouse infection with Vibrio vulnificus, survival. It is filed as in vivo. To be noted: 1.4 mg/kg mixed with bacteria, subcutaneous, ICR female mice, vs DMSO. The protocol: as §1
A further series relates to Vibrio parahaemolyticus. The series can be described thus: Cytotoxicity of Vibrio parahaemolyticus. The following applies: CM2660 at different concentrations. It is filed as cell-based.

Procedure for Vibrio cholerae: Vibrio cholerae supernatant when treated with DMSO was dotted in horse blood agar medium and cultured at 37° C. for 24 hours.

As for `O=C(C#Cc1ccccc1)Nc1scc2c1c(=O)oc1ccccc12` [CM2660, N-(4-oxo-4H-thieno[3,4-c]chromen-3-yl)-3-phenylprop-2-ynamide], the “cytotoxicity to INT-407 cells” value in the series on INT-407 cells is on record as “almost no cytotoxicity”. For the same compound, the “hemolytic activity of Vibrio cholerae (clear zone)” value in the series on Vibrio cholerae is listed as “reduced”. In addition, the response on HlyU [1] was half-maximal at 30.9 µM (EC50). In addition, in the series with rtxA, vvhA and plpA (A600=0.5, vs 2% DMSO), the “rtxA mRNA level” value is recorded as “significantly reduced” and the “vvhA mRNA level” value was “significantly reduced”. Moreover, the “plpA mRNA level” value in the series on rtxA, vvhA and plpA (A600=1.0, vs 2% DMSO) is reported as “significantly reduced”. Also, the “virulence (cytotoxicity) occurrence of Vibrio vulnificus” value with Vibrio vulnificus [2] is “concentration-dependent decrease”. Further, in series [3], the “in-vivo toxicity (survival after CM2660 alone)” value is given as “did not show in-vivo toxicity”. Moreover, the “covalent binding to cysteine residue at position 30 of HlyU” value at HlyU [4] is given as “covalently bound”. Further, the “DNA-binding capability of HlyU” value on HlyU [5] (100 μM compound, 50 nM or 100 nM HlyU, 25° C., 30 minutes) is recorded as “significantly decreased”. Moreover, at HlyU [5] (CM2660 at different concentrations), the “DNA-binding capability of HlyU, concentration dependence” value was “decrease became greater as the concentration of CM2660 increased”. Moreover, in the series on Vibrio vulnificus [6], the “viability (survival) of mice infected with Vibrio vulnificus” value is reported as “significantly higher”. In addition, the “cytotoxicity of Vibrio parahaemolyticus” value in the series on Vibrio parahaemolyticus was “decrease in the cytotoxicity”.

For the origin of these results see patent US11510899B2, “RTX toxin production inhibitor and composition for treating symptom of vibrio infection by using same” (priority 2018, dated 2022).
